Reference: article PMC6406907, “A H2AX–CARP-1 Interaction Regulates Apoptosis Signaling Following DNA Damage” (Cancers, 2019)
No end group written: not given here.

Columns and labels:
[1] = test system: CARP-1 interaction with γH2AX; experiment: Co-immunoprecipitation of myc-His-CARP-1 with γH2AX; format: cell-based, human; details: for interaction of wild-type CARP-1 with γH2AX: MDA-MB-468 cells expressing myc-His-tagged CARP-1 (WT), IP/WB; for interaction of CARP-1 (Δ600–650) with γH2AX: in-frame deletion of CARP-1 amino acids 600–650, IP/WB
Protocol: Logarithmically growing cells were either untreated or treated with different agents for various time periods. The cells were lysed to prepare protein extracts. IP was carried out by incubating approximately 1 mg of the protein lysate with appropriate antibodies. The immunoprecipitates were then analyzed by SDS-PAGE, followed by WB with respective, interacting protein. For Gst-pulldown, Gst-H2AX or various His-TAT-HA-tagged CARP-1 peptides were generated in Escherichia coli (E. coli) BL21 cells essentially as described by us previously. Briefly, the competent E. coli BL-21 (DE3) pLysS cells were transformed separately with various recombinant pGEX-4T-1 or pTAT-HA constructs. The transformed cells were then subjected to selection by combined presence of ampicillin and chloramphenicol; various isolates for each transformation were obtained and bacterial lysates were characterized for expression of fusion peptides. Cells from each isolate were grown in 4 mL of LB medium containing ampicillin only until the optical density (OD)600 reached 0.4–0.8. Expression of fusion peptides was induced over 2–4 h incubation periods after Isopropyl β-D-1-thiogalactopyranoside (IPTG) addition. The cells were harvested, and pellets were stored at −80 °C overnight. The cell pellets were then lysed in 100–400 μL of bacterial protein extraction reagent (BPER) buffer (Thermo Scientific, Waltham, MA, USA, Cat# 78243) containing 2 μL/mL of 10 units/μL DNAse I (Boehringer Mannheim, Fremont, CA, USA, Cat # 776–785), and supernatant checked for expression of respective fusion peptides by WB. Following confirmation of expression, 5–20 μL of lysate expressing Gst fusion protein was first incubated with 20 μL of precleared glutathione sepharose in a final volume of 100 μL at 4 °C for 2 h with constant rotation. The sepharose beads were spun at 800× g for 2 min, and the pellet was washed 2–4 times with 100–200 μL of RIPA buffer (20 mM Tris-HCl (pH 7.5), 150 mM NaCl, 1 mM Na2EDTA, 1 mM EGTA, 1% NP-40, 1% sodium deoxycholate, 2.5 mM sodium pyrophosphate, 1 mM β-glycerophosphate, 1 mM Na3VO4, 1 µg/mL leupeptin) with 0.5 M NaCl. The beads were spun again as above, and mixed with 5–20 μL of E. coli lysate expressing His-TAT-HA CARP-1 peptides. The reactions were incubated further at 4 °C for 2 h with constant rotation. The peptide-bound sepharose beads were pelleted and washed with 100–200 μL of RIPA buffer with 0.1 M NaCl for 2–4 washes. In some cases, additional washes with 0.05 M NaCl buffer were carried out. After the final wash, the sepharose–protein complexes were spun, and then re-suspended in SDS loading buffer for electrophoresis on 12–15% SDS PAGE, followed by WB with appropriate antibodies.
We next carried out mutagenesis-based studies to map the interacting epitopes of CARP-1 and H2AX proteins. […]

endogenous CARP-1 = experiment: Anti-EGFP co-immunoprecipitation with endogenous CARP-1; format: cell-based, human; details: MDA-MB-468 stable subline, anti-EGFP IP, anti-CARP-1 (α2) WB; Figure 5D
Protocol: Logarithmically growing cells were either untreated or treated with different agents for various time periods. The cells were lysed to prepare protein extracts. IP was carried out by incubating approximately 1 mg of the protein lysate with appropriate antibodies. The immunoprecipitates were then analyzed by SDS-PAGE, followed by WB with respective, interacting protein. For Gst-pulldown, Gst-H2AX or various His-TAT-HA-tagged CARP-1 peptides were generated in Escherichia coli (E. coli) BL21 cells essentially as described by us previously. Briefly, the competent E. coli BL-21 (DE3) pLysS cells were transformed separately with various recombinant pGEX-4T-1 or pTAT-HA constructs. The transformed cells were then subjected to selection by combined presence of ampicillin and chloramphenicol; various isolates for each transformation were obtained and bacterial lysates were characterized for expression of fusion peptides. Cells from each isolate were grown in 4 mL of LB medium containing ampicillin only until the optical density (OD)600 reached 0.4–0.8. Expression of fusion peptides was induced over 2–4 h incubation periods after Isopropyl β-D-1-thiogalactopyranoside (IPTG) addition. […]
Figure 5 Fine Mapping of H2AX/CARP-1 interacting epitopes. […] Following stringent washing, the bound proteins were analyzed with WB using anti-HA (upper) or anti-Gst (middle) antibodies. […]

| Molecule | interaction of wild-type CARP-1 with γH2AX [1] | interaction of CARP-1 (Δ600–650) with γH2AX [1] | in-cell interaction with endogenous CARP-1 (endogenous CARP-1) |
| --- | --- | --- | --- |
| COc1cccc2c1C(=O)c1c(O)c3c(c(O)c1C2=O)C[C@@](O)(C(=O)CO)C[C@@H]3O[C@H]1C[C@H](N)[C@H](O)[C@H](C)O1 [Adriamycin, doxorubicin, reference compound] | robust interaction of wild-type CARP-1 with γH2AX | abrogated CARP-1 interaction with γH2AX | – |
| O=C1N(Cc2ccccc2Cl)c2ccccc2C12NN=C(c1cccc(Cl)c1)S2 (centres unmarked) [CFM-4.16] | robust interaction of wild-type CARP-1 with γH2AX | abrogated CARP-1 interaction with γH2AX | – |
| EGFP-H2AX (1–35): EGFP-tagged fusion protein stably expressed in MDA-MB-468 and HeLa sublines (MSGRGKTGGKARAKAKSRSSRAGLQFPVGRVHRLL; also: EGFP fusion, end not given here; UniProt P16104 1-35, looked up, fragment) | – | – | robust, in vivo interaction |
